The text below walks through data of patent US12201610B2, “Compositions comprising aticaprant” (Janssen Pharmaceuticals, Inc., priority 2022, dated 2025).

The test system of data set [1] is subjects with MDD. The data set is described as follows: CGI-S total score (Example 6). The following applies: 10 mg; 59 subjects analyzed; 'at Treatment' (week not given). The class given is in vivo, human. The text has this: CGI-S is a scale that rates the severity of the subject's illness at the time of assessment, relative to the clinician's past experience with subjects who have the same diagnosis and improvement with treatment. CGI-S provides an overall clinician-determined summary measure of severity of subject's illness that considers all available information, including knowledge of subject's history, psychosocial circumstances, symptoms, behavior, and impact of symptoms on subject's ability to function. CGI-S evaluates severity of psychopathology on scale of 0 to 7. Subject is assessed on severity of mental illness at time of rating according to: 0=not assessed; 1=normal (not at all ill); 2=borderline mentally ill; 3=mildly ill; 4=moderately ill; 5=markedly ill; 6=severely ill; 7=among most extremely ill patients.
iv. To investigate the effect of aticaprant on symptoms of depression using the Clinical Global Impression-Severity (CGI-S), the patient reported Symptoms of Major Depressive Disorder Scale (SMDDS) and the self-assessment of treatment experience (SATE). […]

The subject of data set [2] is subjects with MDD. The data set is described as follows: SATE score (Example 6). The settings on record: Treatment Week 6, aticaprant 10 mg. The class given is in vivo, human. The text has this: SATE is a one to three questionnaire administered when the subject is unable to complete other evaluations, i.e., away from the clinical setting such as at home. SATE is useful to evaluate improvement or deterioration of depressive symptoms of the subjects over a short period of time. […] See, Table 6.
iv. To investigate the effect of aticaprant on symptoms of depression using the Clinical Global Impression-Severity (CGI-S), the patient reported Symptoms of Major Depressive Disorder Scale (SMDDS) and the self-assessment of treatment experience (SATE).
• (i) Depression: Montgomery-Åsberg Depression Rating Scale (MADRS), Clinical Global Impression-Severity (CGI-S), Symptoms of Major Depressive Disorder Scale (SMDDS), and Self-assessment of treatment experience (SATE) • (ii) Anhedonia: Snaith-Hamilton Pleasure Scale (SHAPS) • (iii) Anxiety: Structured Interview Guide for the Hamilton Anxiety scale (SIGH-A) and HAM-A6 • (iv) Effects on Cognition: The Cognitive and Physical Functioning Questionnaire (CPFQ) • (v) Safety assessments

Data set [3] in a line: Plasma Cmax of aticaprant in subjects with MDD (Example 6). The class given is in vivo. The following applies: human, oral, 10 mg, 10 mg once daily, read-out: Cmax, Arithmetic Mean (SD). From the text:
vi. To assess the plasma PK of aticaprant in subjects with MDD and explore its relationship with efficacy and safety parameters.
Cmax is defined as maximum plasma concentration of aticaprant. […] Here ‘N’ (number of subjects analyzed) includes the number of subjects evaluable for this endpoint. Here ‘n’ (number analyzed) included all subjects evaluable for specified time point categories.

Data set [4] in a line: Body weight by treatment group (Example 6). The class given is in vivo, human. The method, then: Treatment with aticaprant as described herein has several advantages over the treatments in the art. […] As used herein, the term “weight gain” refers to an increase in the weight of patient, relative to the weight of the patient before taking aticaprant or the weight of the patient that is assessed at the time of the initial administration of aticaprant. In certain embodiments, the patient may actually see a decrease in overall weight, relative to the weight of the patient before taking aticaprant.
At the lead-in baseline timepoint, the mean weight for subjects in the placebo group was 76.17 kg compared to 78.66 in the aticaprant group. After 6 weeks in the double-blind treatment phase, the mean weight in the placebo group was 75.75 kg compared to 78.57 kg in the aticaprant group. […] This is unexpected because other adjunctive treatments for MDD result in a mean weight increase. See, Thase M, et al. J Clin Psych. 2015: 76(9), 1224-1231; Thase, J Clin Psych. 2015, 76(9): 1232-1240; El Khalili, Int J Neuropsychopharmacol. 2010, 13, 917-932; Marcus, J. Clin. Psychopharmacol. […] Nashville, Tenn, ACNP, 2008; Earley, American College of Neuropsychopharmacology, 2007, Annual Meeting Abstracts (Boca Raton, Fla, Dec. 9-13, 2007). Nashville, TN, ACNP, 2007). See, Table 45.

Each structure is given as a SMILES string. Like-named read-outs stand apart in the source and are kept apart here.

As to `Cc1cc(C)cc(C2CCCN2Cc2ccc(Oc3ccc(C(N)=O)cc3F)cc2)c1` (centres unmarked) [aticaprant, 3-fluoro-4-4-2-(3,5-dimethylphenyl)pyrrolidin-1-yl-methylphenoxybenzamide], the “Change from Treatment Baseline in CGI-S Total Score, Arithmetic Mean (SD)” value in the data set on subjects with MDD [1] is given as −0.92 ± 1.039 Scores on a scale. Moreover, in the data set on subjects with MDD [2] (n = 0), the “SATE: Depression Worsened (Much worse)” value was 0 subjects, the “SATE: Depression Worsened (Slightly worse)” value was 0 subjects and the “SATE: Depression Worsened (Very much worse)” value is given as 0 subjects. Besides, in the data set with subjects with MDD [2] (n = 21), the “SATE: Depression Much improved” value turned out to be 6 subjects, the “SATE: Depression Slightly improved” value is recorded as 15 subjects and the “SATE: Depression Very Much Improved” value was determined as 0 subjects. In the data set with subjects with MDD [2] (n = 30), the “SATE: Overall Depression (Got worse)” value was 0 subjects, the “SATE: Overall Depression (Improved)” value was 21 subjects and the “SATE: Overall Depression (Not changed)” value came out at 9 subjects. Further, the Cmax in data set [3] (Week 1, eITT) amounted to 0.0327 ± 0.0109 µg/mL. Also, the maximum concentration (Cmax) in data set [3] (Week 3, eITT) stood at 0.0335 ± 0.0111 µg/mL. Besides, the maximum concentration (Cmax) in data set [3] (Week 6, eITT) is 0.0343 ± 0.0111 µg/mL. The “Mean weight, mean (SE)” value in data set [4] (Lead-in Baseline, n = 85) is listed as 78.66 (1.65) kg. For the same compound, the “Mean weight, mean (SE)” value in data set [4] (Screening, n = 85) is given as 78.42 (1.65) kg. Moreover, the “Mean weight, mean (SE)” value in data set [4] (Withdrawal Baseline, n = 85) was 78.57 (1.71) kg. Further, in data set [4] (after 6 weeks in the double-blind treatment phase), the mean weight was determined as 78.57 kg. In addition, the mean weight in data set [4] (lead-in baseline timepoint) was 78.66 kg. In data set [4] (n = 85), the “Weight Absolute Change (Withdrawal—Lead-in)” value was -0.09 kg and the “Weight Relative % Change” value was −0.11%.

In general, Cmax refers to the peak of the concentration-time curve.
